How the values were obtained:
[1] = Vitamin-D activity at VDR receptor in human HL60 cells assessed as induction of cell differentiation by NBT reduction assay
[2] = Antiandrogen activity against androgen receptor in androgen-dependent mouse SC3 cells assessed as inhibition of testosterone-induced cell proliferation by WST1 assay

SMILES | EC50 [1] | IC50 [2]
CCC(CC)(c1ccc(OCC(=O)C23CC4CC(CC(C4)C2)C3)c(C)c1)c1ccc(OC[C@@H](O)CO)c(C)c1 | > 30 µM | > 30 µM
CCC(CC)(c1ccc(OCC(O)C23CC4CC(CC(C4)C2)C3)c(C)c1)c1ccc(OC[C@@H](O)CO)c(C)c1 (stereo not given in full) | 22 µM | > 10 µM
CCC(CC)(c1ccc(OC[C@@H](O)CO)c(C)c1)c1ccc(O[C@@H]2CN(Cc3ccccc3)C[C@@H]2O)c(C)c1 [(2S)-3-(4-(3-(4-(1-benzyl-4-hydroxypyrrolidin-3-yloxy)-3-methylphenyl)pentan-3-yl)-2-methylphenoxy)propane-1,2-diol] | > 30 µM | > 10 µM
CCC(CC)(c1ccc(OCC(O)C(C)(C)Cc2ccc3ccccc3c2)c(C)c1)c1ccc(OC[C@@H](O)CO)c(C)c1 (stereo partly drawn) [(2S)-3-(4-(3-(4-(2-hydroxy-3,3-dimethyl-4-(naphthalen-2-yl)butoxy)-3-methylphenyl)pentan-3-yl)-2-methylphenoxy)propane-1,2-diol] | > 30 µM | > 10 µM
CCC(CC)(c1ccc(OCC(O)C(C)(C)Cc2ccccc2)c(C)c1)c1ccc(OC[C@@H](O)CO)c(C)c1 (stereo partly drawn) [(2S)-3-(4-(3-(4-(2-hydroxy-3,3-dimethyl-4-phenylbutoxy)-3-methylphenyl)pentan-3-yl)-2-methylphenoxy)propane-1,2-diol] | 11 µM | 1.7 µM
CCC(CC)(c1ccc(OCC(O)C(C)(C)CCc2ccccc2)c(C)c1)c1ccc(OC[C@@H](O)CO)c(C)c1 (stereo partly drawn) [(2S)-3-(4-(3-(4-(2-hydroxy-3,3-dimethyl-5-phenylpentyloxy)-3-methylphenyl)pentan-3-yl)-2-methylphenoxy)propane-1,2-diol] | 7.1 µM | 0.88 µM
CCC(CC)(c1ccc(OCC(O)C(C)(C)CCCc2ccccc2)c(C)c1)c1ccc(OC[C@@H](O)CO)c(C)c1 (stereo partly drawn) [(2S)-3-(4-(3-(4-(2-hydroxy-3,3-dimethyl-6-phenylhexyloxy)-3-methylphenyl)pentan-3-yl)-2-methylphenoxy)propane-1,2-diol] | 3.6 µM | 0.13 µM
CCC(CC)(c1ccc(OCC(O)C(C)(C)CCCCc2ccccc2)c(C)c1)c1ccc(OC[C@@H](O)CO)c(C)c1 (stereo partly drawn) [(2S)-3-(4-(3-(4-(2-hydroxy-3,3-dimethyl-7-phenylheptyloxy)-3-methylphenyl)pentan-3-yl)-2-methylphenoxy)propane-1,2-diol] | > 30 µM | > 10 µM
CCC(CC)(c1ccc(OC[C@@H](O)CO)c(C)c1)c1ccc(OC[C@H](O)C(C)(C)C)c(C)c1 [(2S)-3-{4-[1-ethyl-1-(4-{[(2R)-2-hydroxy-3,3-dimethylbutyl]oxy}-3-methylphenyl)propyl]-2-methylphenoxy}propane-1,2-diol] |  | 0.003 µM
CCC(CC)(c1ccc(OCC(=O)C(C)(C)C)c(C)c1)c1ccc(OC[C@H](O)CO)c(C)c1 [(R)-1-(4-(3-(4-(2,3-dihydroxypropoxy)-3-methylphenyl)pentan-3-yl)-2-methylphenoxy)-3,3-dimethylbutan-2-one] |  | 0.015 µM
CCC(CC)(c1ccc(OC[C@H](O)CO)c(C)c1)c1ccc(OC[C@H](O)C(C)(C)C)c(C)c1 [(R)-3-(4-(3-(4-((R)-2-hydroxy-3,3-dimethylbutoxy)-3-methylphenyl)pentan-3-yl)-2-methylphenoxy)propane-1,2-diol] |  | 0.014 µM
CCC(CC)(c1ccc(OC[C@H](O)CO)c(C)c1)c1ccc(OC[C@@H](O)C(C)(C)C)c(C)c1 [(R)-3-(4-(3-(4-((S)-2-hydroxy-3,3-dimethylbutoxy)-3-methylphenyl)pentan-3-yl)-2-methylphenoxy)propane-1,2-diol] |  | 0.068 µM
CCC(CC)(c1ccc(OCC(=O)C(C)(C)Cc2ccc3ccccc3c2)c(C)c1)c1ccc(OC[C@@H](O)CO)c(C)c1 [(S)-1-(4-(3-(4-(2,3-dihydroxypropoxy)-3-methylphenyl)pentan-3-yl)-2-methylphenoxy)-3,3-dimethyl-4-(naphthalen-2-yl)butan-2-one] | > 30 µM | > 30 µM
CCC(CC)(c1ccc(OCC(=O)C(C)(C)Cc2ccccc2)c(C)c1)c1ccc(OC[C@@H](O)CO)c(C)c1 [(S)-1-(4-(3-(4-(2,3-dihydroxypropoxy)-3-methylphenyl)pentan-3-yl)-2-methylphenoxy)-3,3-dimethyl-4-phenylbutan-2-one] | 21 µM | > 10 µM
CCC(CC)(c1ccc(OCC(=O)C(C)(C)CCc2ccccc2)c(C)c1)c1ccc(OC[C@@H](O)CO)c(C)c1 [(S)-1-(4-(3-(4-(2,3-dihydroxypropoxy)-3-methylphenyl)pentan-3-yl)-2-methylphenoxy)-3,3-dimethyl-5-phenylpentan-2-one] | 23 µM | 1.1 µM
CCC(CC)(c1ccc(OCC(=O)C(C)(C)CCCc2ccccc2)c(C)c1)c1ccc(OC[C@@H](O)CO)c(C)c1 [(S)-1-(4-(3-(4-(2,3-dihydroxypropoxy)-3-methylphenyl)pentan-3-yl)-2-methylphenoxy)-3,3-dimethyl-6-phenylhexan-2-one] | > 30 µM | 9.8 µM
CCC(CC)(c1ccc(OCC(=O)C(C)(C)CCCCc2ccccc2)c(C)c1)c1ccc(OC[C@@H](O)CO)c(C)c1 [(S)-1-(4-(3-(4-(2,3-dihydroxypropoxy)-3-methylphenyl)pentan-3-yl)-2-methylphenoxy)-3,3-dimethyl-7-phenylheptan-2-one] | > 30 µM | > 30 µM
CCC(CC)(c1ccc(OCC(=O)C(C)(C)C)c(C)c1)c1ccc(OC[C@@H](O)CO)c(C)c1 [(S)-1-(4-(3-(4-(2,3-dihydroxypropoxy)-3-methylphenyl)pentan-3-yl)-2-methylphenoxy)-3,3-dimethylbutan-2-one] |  | 0.032 µM
CCC(CC)(c1ccc(OC[C@@H](O)CO)c(C)c1)c1ccc(OC[C@@H](O)C(C)(C)C)c(C)c1 [(S)-3-(4-(3-(4-((S)-2-hydroxy-3,3-dimethylbutoxy)-3-methylphenyl)pentan-3-yl)-2-methylphenoxy)propane-1,2-diol] |  | 0.013 µM
CCC(CC)(c1ccc(OCC(=O)C(C)(C)C)c(C)c1)c1ccc(OCC(O)CO)c(C)c1 (stereo not given) [LG190178] | 0.09 µM | 
CCC(CC)(c1ccc(OC[C@@H](O)CO)c(C)c1)c1ccc(O[C@@H]2CN(C(=O)OCc3ccccc3)C[C@@H]2O)c(C)c1 [benzyl 3-(4-(3-(4-((S)-2,3-dihydroxypropoxy)-3-methylphenyl)pentan-3-yl)-2-methylphenoxy)-4-hydroxypyrrolidine-1-carboxylate] | > 30 µM | > 30 µM

From BindingDB's records for doi:10.1016/j.bmcl.2010.09.011 (The University of Tokyo, 2010)
